Consider 15 compounds from US9643999B2 (Bristol-Myers Squibb Company, priority 2012, dated 2017).

Experiment [1] has as its system HCV genotype 1b replicon. Nature of the experiment: HCV replicon luciferase reporter assay, genotype 1b (LE_1b). The experiment is classed as cell-based. To be noted: Hepatitis C virus, 72 h, HUH-7 cells, genotype 1b (Con1) replicon, 3 days incubation, Renilla luciferase. The source says:
An HCV replicon whole cell system was established as described by Lohmann V, Korner F, Koch J, Herian U, Theilmann L, Bartenschlager R., Science 285(5424):110-3 (1999) and modified to introduce a luciferase reporter, as first described by Krieger et al (Krieger N, Lohmann V, and Bartenschlager R, J. Virol. 75(10):4614-4624 (2001)). cDNA encoding a humanized form of the Renilla luciferase gene and a linker sequence fused directly to the 3′-end of the luciferase gene were introduced into the replicon construct using an Asc1 restriction site located in core, directly upstream of the neomycin marker gene. The adaptive mutation at position 1179 (serine to isoleucine) was also introduced (Blight K J, Kolykhalov, A A, Rice, C M, Science 290(5498):1972-1974). A stable cell line constitutively expressing this HCV replicon construct was generated by first linearizing plasmid DNAs with ScaI. RNA transcripts were synthesized in vitro using the T7 MegaScript transcription kit (Ambion, Austin, Tex.) according to manufacturer's directions. In vitro transcripts of the cDNA were transfected into the human hepatoma cell line, HUH-7. […] Resulting cell lines were characterized for positive and negative strand RNA production and protein production over time. […]
(§1) HCV replicon luciferase assays were developed to monitor the inhibitory effects of compounds described in the disclosure on HCV genotypes 1a and 1b viral replication. HUH-7 cells, constitutively expressing the HCV replicon, were grown in Dulbecco's Modified Eagle Media (DMEM) (Gibco-BRL) containing 10% Fetal calf serum (FCS) (Sigma) and 1 mg/mL G418 (Gibco-BRL). Compounds were serially diluted 3 folds in DMSO for a twenty-point titration and subsequently transferred to sterile 384-well tissue-culture treated plates (Corning cat #3571). The plates were then seeded with 50 μL of cells at a density of 3.0×10^3 cells/well in DMEM containing 4% FCS (final DMSO concentration at 0.5%). After 3 days incubation at 37° C., cells were analyzed for Renilla Luciferase activity using the EnduRen as substrate (Promega cat #E6485). The EnduRen substrate was diluted in DMEM and then added to the plates to a final concentration of 7.5 μM. The plates were incubated for 2 hrs at 37° C. and then read immediately for 30 seconds with Viewlux Imager (PerkinElmer) using a luminescence program. To assess cytotoxicity of compounds, CC50 values were generated by multiplexing the EnduRen-containing plates with Cell Titer-Blue (Promega, cat #G8082). Cell-Titer Blue (3 μL) was added to each well and incubated for 8 hrs at 37° C. The fluorescence signal from each well was read, with an excitation wavelength at 525/10 nm and an emission wavelength of 598/10 nm, using the Viewlux Imager.
(§2) The EC50 values for compounds were calculated by using a four-parameter logistic equation: y=A+((B−A)/(1+((C/x)^D))), where A and B denotes minimal and maximal % inhibition, respectively, C is the EC50, D is the hill slope and x represents compound concentration.

Experiment [2] deals with HCV genotype 1a replicon. Nature of the experiment: HCV replicon luciferase reporter assay, genotype 1a (LE_1a). The experiment is classed as cell-based. The conditions noted are these: Hepatitis C virus, 72 h, HUH-7 cells, genotype 1a H77 replicon, 3 days incubation, Renilla luciferase.
From the text: An HCV replicon whole cell system was established as described by Lohmann V, Korner F, Koch J, Herian U, Theilmann L, Bartenschlager R., Science 285(5424):110-3 (1999) and modified to introduce a luciferase reporter, as first described by Krieger et al (Krieger N, Lohmann V, and Bartenschlager R, J. Virol. 75(10):4614-4624 (2001)). cDNA encoding a humanized form of the Renilla luciferase gene and a linker sequence fused directly to the 3′-end of the luciferase gene were introduced into the replicon construct using an Asc1 restriction site located in core, directly upstream of the neomycin marker gene. The adaptive mutation at position 1179 (serine to isoleucine) was also introduced (Blight K J, Kolykhalov, A A, Rice, C M, Science 290(5498):1972-1974). A stable cell line constitutively expressing this HCV replicon construct was generated by first linearizing plasmid DNAs with ScaI. RNA transcripts were synthesized in vitro using the T7 MegaScript transcription kit (Ambion, Austin, Tex.) according to manufacturer's directions. In vitro transcripts of the cDNA were transfected into the human hepatoma cell line, HUH-7. […] Resulting cell lines were characterized for positive and negative strand RNA production and protein production over time.
A stable HCV replicon luciferase reporter cell line representing the genotype 1a H77 strain (Yanagi M, Purcell R H, Emerson S U, et al. Transcripts from a single full-length cDNA clone of hepatitis C virus are infectious when directly transfected into the liver of a chimpanzee. Proc Natl Acad Sci USA 1997; 94(16):8738-8743) was generated as described previously for the genotype 1b(Con1) replicon luciferase cell line. The replicon construct was modified by introducing mutations were introduced into the genes encoding the NS3 helicase domain (proline replaced by leucine at position 1496) and NS5A (serine to isoleucine at position 2204) to improve replication in cell culture.
as §1, §2
Background: Replicon systems follow genome replication, usually without infectious particles.

Structures are written as SMILES. Where two headings read alike, the source gives them in different places.

In the case of `CC[C@@H]1C[C@H](C)CC/C=C\[C@@H]2C[C@@]2(C(=O)NS(=O)(=O)C2CC2)NC(=O)[C@@H]2C[C@@H](Oc3nc4cccnc4nc3C(F)(F)F)CN2C(=O)[C@H]1NC(=O)OC(C)(C)C` [Compound 4329, tert-butyl((2R,6S,7R,9R,13aS,14aR,16aS,Z)-14a-((cyclopropylsulfonyl)carbamoyl)-7-ethyl-9-methyl-5,16-dioxo-2-((3-(trifluoromethyl)pyrido[2,3-b]pyrazin-2-yl)oxy)-1,2,3,5,6,7,8,9,10,11,13a,14,14a,15,16,16a-hexadecahydrocyclopropa[e]pyrrolo[1,2-a][1,4]diazacyclopentadecin-6-yl)carbamate], the EC50 in experiment [1] (read-out: LE_1b (EC50, range)) fell in the range of 35 to 145 nM; in experiment [2] (read-out: LE_1a (EC50, range)), 35 to 145 nM.

For the compound `CC[C@@H]1C[C@H](C)CC/C=C\[C@@H]2C[C@@]2(C(=O)NS(=O)(=O)C2(C)CC2)NC(=O)[C@@H]2C[C@@H](Oc3ncc(N(C)C(=O)c4ccccc4)c4cc(OC)ccc34)CN2C(=O)[C@H]1NC(=O)OC(C)(C)C(F)(F)F` [Compound 4248], the concentration for a half-maximal effect (EC50) lay in the range of 1.01 to 5 nM in experiment [1] (read-out: LE_1b (EC50, range)) and 1.01 to 5 nM in experiment [2] (read-out: LE_1a (EC50, range)).

`C[C@@H]1CC/C=C\[C@@H]2C[C@@]2(C(=O)NS(=O)(=O)C2(C)CC2)NC(=O)[C@@H]2C[C@@H](Oc3nc4cc(C(=O)OC(C)(C)C)ccc4nc3C(F)(F)F)CN2C(=O)[C@@H](NC(=O)OC(C)(C)C(C)(F)F)[C@H](C)C1` [Compound 7001, tert-butyl 3-(((2R,6S,7R,9R,13aS,14aR,16aS,Z)-6-((((3,3-difluoro-2-methylbutan-2-yl)oxy)carbonyl)amino)-7,9-dimethyl-14a-(((1-methylcyclopropyl)sulfonyl)carbamoyl)-5,16-dioxo-1,2,3,5,6,7,8,9,10,11,13a,14,14a,15,16,16a-hexadecahydrocyclopropa[e]pyrrolo[1,2-a][1,4]diazacyclopentadecin-2-yl)oxy)-2-(trifluoromethyl)quinoxaline-6-carboxylate]: the EC50 in experiment [1] (read-out: LE_1b (EC50, range)) is 0.51 to 1 nM; in experiment [2] (read-out: LE_1a (EC50, range)), 1.01 to 5 nM.

Consider `CC[C@@H]1C[C@H](C)CC/C=C\[C@@H]2C[C@@]2(C(=O)NS(=O)(=O)C2(C)CC2)NC(=O)[C@@H]2C[C@@H](Oc3cc(-n4ccc(C(C)C)n4)nc4cc(OC)ccc34)CN2C(=O)[C@H]1NC(=O)OC(C)(C)C(F)(F)F` [Compound 4358], for which the half-maximal effective concentration (EC50) lay within 1.01 to 5 nM in experiment [1] (read-out: LE_1b (EC50, range)) and 1.01 to 5 nM in experiment [2] (read-out: LE_1a (EC50, range)).

In the case of `C[C@@H]1CC/C=C\[C@@H]2C[C@@]2(C(=O)NS(=O)(=O)C2(C)CC2)NC(=O)[C@@H]2C[C@@H](Oc3nc4nncn4c4ccccc34)CN2C(=O)[C@@H](NC(=O)OC(C)(C)C(F)(F)F)[C@H](C)C1` [Compound 6125], the EC50 in experiment [1] (read-out: LE_1b (EC50, range)) is 35 to 145 nM; in experiment [2] (read-out: LE_1a (EC50, range)), 35 to 145 nM.

As to `[2H]C([2H])([2H])C1(S(=O)(=O)NC(=O)[C@@]23C[C@H]2/C=C\CC[C@@H](C)C[C@@H](CC)[C@H](NC(=O)OC(C)(C)C(F)F)C(=O)N2C[C@H](Oc4ncc(OC)c5ccccc45)C[C@H]2C(=O)N3)CC1` [Compound 5549], the EC50 in experiment [1] (read-out: LE_1b (EC50, range)) fell in the range of 0.51 to 1 nM; in experiment [2] (read-out: LE_1a (EC50, range)), 0.51 to 1 nM.

As to `C[C@@H]1CC/C=C\[C@@H]2C[C@@]2(C(=O)NS(=O)(=O)C2(C)CC2)NC(=O)[C@@H]2C[C@@H](Oc3nc4nccn4c4ccccc34)CN2C(=O)[C@@H](NC(=O)OC(C)(C)C(F)(F)F)[C@H](C)C1` [Compound 6127], the EC50 in experiment [1] (read-out: LE_1b (EC50, range)) was in the range of 5.01 to 35 nM; in experiment [2] (read-out: LE_1a (EC50, range)), 5.01 to 35 nM.

Turning to `[2H]C([2H])([2H])C1(S(=O)(=O)NC(=O)[C@@]23C[C@H]2/C=C\CC[C@@H](C)C[C@@H](CC)[C@H](NC(=O)OC(C)(C)C(F)F)C(=O)N2C[C@H](Oc4nccc5cc(OCC)c(F)cc45)C[C@H]2C(=O)N3)CC1` [Compound 5521], the EC50 in experiment [1] (read-out: LE_1b (EC50)) was 0.47 nM; in experiment [1] (read-out: LE_1b (EC50, range)) it was 0.1 to 0.5 nM; in experiment [2] (read-out: LE_1a (EC50)), 1.23 nM; in experiment [2] (read-out: LE_1a (EC50, range)), 1.01 to 5 nM.

Regarding `CC[C@@H]1C[C@H](C)CC/C=C\[C@@H]2C[C@@]2(C(=O)NS(=O)(=O)C2(C)CC2)NC(=O)[C@@H]2C[C@@H](Oc3nc4nccn4c4ccc(Cl)cc34)CN2C(=O)[C@H]1NC(=O)OC(C)(C)C(F)(F)F` [Compound 6133], the EC50 in experiment [1] (read-out: LE_1b (EC50, range)) was 0.51 to 1 nM; in experiment [2] (read-out: LE_1a (EC50, range)), 5.01 to 35 nM.

As to `Cc1cn2c(n1)nc(O[C@@H]1C[C@H]3C(=O)N[C@]4(C(=O)NS(=O)(=O)C5(C)CC5)C[C@H]4/C=C\CC[C@@H](C)C[C@@H](C)[C@H](NC(=O)OC(C)(C)C(C)(F)F)C(=O)N3C1)c1cc(Cl)ccc12` [Compound 6137], the EC50 in experiment [1] (read-out: LE_1b (EC50, range)) was in the range of 0.51 to 1 nM; in experiment [2] (read-out: LE_1a (EC50, range)), 1.01 to 5 nM.

Consider `CC[C@@H]1C[C@H](C)CC/C=C\[C@@H]2C[C@@]2(C(=O)NS(=O)(=O)C2(C)CC2)NC(=O)[C@@H]2C[C@@H](Oc3ncc(-c4nc(C(C)(C)C)cs4)c4cc(OC)ccc34)CN2C(=O)[C@H]1NC(=O)OC(C)(C)C(F)(F)F` [Compound 4275], for which the EC50 fell in the range of 5.01 to 35 nM in experiment [1] (read-out: LE_1b (EC50, range)) and 5.01 to 35 nM in experiment [2] (read-out: LE_1a (EC50, range)).

Take `CC[C@@H]1C[C@H](C)CC/C=C\[C@@H]2C[C@@]2(C(=O)NS(=O)(=O)C2(C)CC2)NC(=O)[C@@H]2C[C@@H](Oc3nccc4c5c(ccc34)CCO5)CN2C(=O)[C@H]1NC(=O)OC(C)(C)C` [Compound 5493, tert-butyl((2R,6S,7R,9R,13aS,14aR,16aS,Z)-2-((2,3-dihydrofuro[2,3-f]isoquinolin-6-yl)oxy)-7-ethyl-9-methyl-14a-(((1-methylcyclopropyl)sulfonyl)carbamoyl)-5,16-dioxo-1,2,3,5,6,7,8,9,10,11,13a,14,14a,15,16,16a-hexadecahydrocyclopropa[e]pyrrolo[1,2-a][1,4]diazacyclopentadecin-6-yl)carbamate]: the EC50 lay in the range of 5.01 to 35 nM in experiment [1] (read-out: LE_1b (EC50, range)) and 35 to 145 nM in experiment [2] (read-out: LE_1a (EC50, range)).

Take `CC[C@@H]1C[C@H](C)CC/C=C\[C@@H]2C[C@@]2(C(=O)NS(=O)(=O)C2CC2)NC(=O)[C@@H]2C[C@@H](Oc3nc4ccc(OC)cc4nc3C3CC3)CN2C(=O)[C@H]1NC(=O)OC(C)(C)C` [Compound 4306]: the EC50 in experiment [1] (read-out: LE_1b (EC50, range)) lay in the range of 5.01 to 35 nM; in experiment [2] (read-out: LE_1a (EC50, range)), 5.01 to 35 nM.

Regarding `CC[C@@H]1C[C@H](C)CC/C=C\[C@@H]2C[C@@]2(C(=O)NS(=O)(=O)C2(C)CC2)NC(=O)[C@@H]2C[C@@H](Oc3ncc(-c4nccs4)c4cc(OC)ccc34)CN2C(=O)[C@H]1NC(=O)OC(C)(C)C(F)(F)F` [Compound 4258], the EC50 fell in the range of 1.01 to 5 nM in experiment [1] (read-out: LE_1b (EC50, range)) and 1.01 to 5 nM in experiment [2] (read-out: LE_1a (EC50, range)).

Turning to `[2H]C([2H])([2H])C1(S(=O)(=O)NC(=O)[C@@]23C[C@H]2/C=C\CC[C@@H](C)C[C@@H](CC)[C@H](NC(=O)OC(C)(C)C(F)(F)F)C(=O)N2C[C@H](Oc4nccc5cc(OC)c(F)cc45)C[C@H]2C(=O)N3)CC1` [Compound 5511], the EC50 lay within 1.01 to 5 nM in experiment [1] (read-out: LE_1b (EC50, range)) and 1.01 to 5 nM in experiment [2] (read-out: LE_1a (EC50, range)).

Broadly, the EC50 is the concentration at which the effect is half-maximal.
